How the values were obtained:
[1] = test system: Phakopsora pachyrhizi (the causal agent of Asian soybean rust); assay: Test A: preventive spray on soybean seedlings, Asian soybean rust, visual disease rating; format: in vivo; settings: soybean seedlings, 100 = 100% disease control, 0 = no control
Summary of the method: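 Compound in acetone/water (50/50) with 250 ppm PEG400 sprayed to run-off on soybean seedlings; inoculated next day with Phakopsora pachyrhizi spores. Held 24 h at 22° C in saturated atmosphere, then 8 days in a 22° C growth chamber before visual rating as % disease control relative to controls.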

[2] = test system: Puccinia recondita f. sp. tritici (the causal agent of wheat leaf rust); assay: Test C: preventive spray on wheat seedlings, wheat leaf rust, visual disease rating; format: in vivo; settings: wheat seedlings, 100 = 100% disease control, 0 = no control
Summary of the method: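 Wheat seedlings sprayed to run-off with compound in acetone/water (50/50) with 250 ppm PEG400, then inoculated with spores the following day. After 24 h saturated humidity at 20° C. and 6 days in growth chamber at 20° C., disease rated visually as % control relative to untreated controls.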

| SMILES | Test A disease control rating ([1]; 10 ppm test suspension) | Test C disease control rating ([2]; 10 ppm test suspension) | Test A disease control rating ([1]; 50 ppm test suspension) | Test C disease control rating ([2]; 50 ppm test suspension) |
| --- | --- | --- | --- | --- |
| FC(F)(F)c1nc(-c2ccc(Cn3cc4cnc(Cl)nc4n3)cc2)no1 [compound 433] | 100% | 99% | – | – |
| CSCC(=O)COC(=O)c1cnn(Cc2ccc(-c3noc(C(F)(F)F)n3)cc2)c1 [compound 434] | 100% | 98% | – | – |
| N#Cc1cnn(CCc2ccc(-c3noc(C(F)(F)F)n3)cc2)c1 [compound 435] | 100% | 74% | – | – |
| COC(=O)c1cnn(CCc2ccc(-c3noc(C(F)(F)F)n3)cc2)c1 [compound 436] | 100% | 74% | – | – |
| CCOC(=O)c1cnn(CCc2ccc(-c3noc(C(F)(F)F)n3)cc2)c1 [compound 437] | 100% | 86% | – | – |
| CCCOC(=O)c1cnn(Cc2cc(OC)c(-c3noc(C(F)(F)F)n3)s2)c1 [compound 439] | 0% | 0% | – | – |
| C=CCOC(=O)c1cnn(Cc2cc(OC)c(-c3noc(C(F)(F)F)n3)s2)c1 [compound 440] | 0% | 0% | – | – |
| CC(=O)Nc1cnn(Cc2ccc(-c3noc(C(F)(F)F)n3)cc2)c1 [compound 441] | 87% | 9% | – | – |
| CS(=O)(=O)Nc1cnn(Cc2ccc(-c3noc(C(F)(F)F)n3)cc2)c1 [compound 442] | 44% | 0% | – | – |
| CCOC(=O)Nc1cnn(Cc2ccc(-c3noc(C(F)(F)F)n3)cc2)c1 [compound 443] | 100% | 74% | – | – |
| FC(F)(F)c1nc(-c2ccc(Cn3ncc4c(I)ccnc43)cc2)no1 [compound 444] | 96% | 86% | – | – |
| FC(F)(F)c1nc(-c2ccc(Cn3cc4c(I)ccnc4n3)cc2)no1 [compound 445] | 100% | 99% | – | – |
| Nc1nn(Cc2ccc(-c3noc(C(F)(F)F)n3)cc2)c2ncccc12 [compound 446] | 99% | 86% | – | – |
| CCCCCOC(=O)c1cnn(Cc2ccc(-c3noc(C(F)(F)F)n3)cc2)c1 [compound 447] | 100% | 100% | – | – |
| O=C(OCCCCl)c1cnn(Cc2ccc(-c3noc(C(F)(F)F)n3)cc2)c1 [compound 448] | 100% | 100% | – | – |
| O=C(NCC(F)(F)F)c1cnn(Cc2ccc(-c3noc(C(F)(F)F)n3)cc2)c1 [compound 449] | 100% | 100% | – | – |
| CCOC(=O)c1cnn(Cc2ccc3cc(-c4noc(C(F)(F)F)n4)ccc3c2)c1 [compound 457] | – | – | 77% | 0% |
| CN(C)C(=O)C1=NOC(Cc2ccc(-c3noc(C(F)(F)F)n3)s2)C1 (centres unmarked) [compound 460] | – | – | 100% | 99% |
| COCCNC(=O)C1=NOC(Cc2ccc(-c3noc(C(F)(F)F)n3)s2)C1 (centres unmarked) [compound 461] | – | – | 100% | 100% |

| SMILES | Test A disease control rating ([1]; 10 ppm test suspension) | Test C disease control rating ([2]; 10 ppm test suspension) | Test A disease control rating ([1]; 50 ppm test suspension) | Test C disease control rating ([2]; 50 ppm test suspension) |
| --- | --- | --- | --- | --- |
| O=C1N(Cc2ccc(-c3noc(C(F)(F)F)n3)cc2)CCc2cncn21 [compound 462] | 100% | 89% | – | – |
| COCCCOC(=O)c1cnn(Cc2ccc(-c3noc(C(F)(F)F)n3)cc2)c1 [compound 474] | 100% | 100% | – | – |
| O=C(OCCN1CCOCC1)c1cnn(Cc2ccc(-c3noc(C(F)(F)F)n3)cc2)c1 [compound 475] | 100% | 91% | – | – |
| CCOC(=O)COC(=O)c1cnn(Cc2ccc(-c3noc(C(F)(F)F)n3)cc2)c1 [compound 476] | 100% | 86% | – | – |
| O=C(OCCCl)c1cnn(Cc2ccc(-c3noc(C(F)(F)F)n3)cc2)c1 [compound 477] | 100% | 100% | – | – |
| O=C(OCCBr)c1cnn(Cc2ccc(-c3noc(C(F)(F)F)n3)cc2)c1 [compound 478] | – | – | 81% | 19% |
| O=C(OCc1ccccn1)c1cnn(Cc2ccc(-c3noc(C(F)(F)F)n3)cc2)c1 [compound 479] | 100% | 100% | – | – |
| CC(C)CCOC(=O)c1cnn(Cc2ccc(-c3noc(C(F)(F)F)n3)cc2)c1 [compound 480] | 100% | 98% | – | – |
| CCC(C)OC(=O)c1cnn(Cc2ccc(-c3noc(C(F)(F)F)n3)cc2)c1 (centres unmarked) [compound 481] | 100% | 100% | – | – |
| C=C(Cl)COC(=O)c1cnn(Cc2ccc(-c3noc(C(F)(F)F)n3)cc2)c1 [compound 482] | 100% | 100% | – | – |
| O=C(NCc1cccnc1)c1cnn(Cc2ccc(-c3noc(C(F)(F)F)n3)cc2)c1 [compound 483] | 100% | 54% | – | – |
| O=C(NCc1ccccc1)c1cnn(Cc2ccc(-c3noc(C(F)(F)F)n3)cc2)c1 [compound 484] | 100% | 100% | – | – |
| O=C(Nc1ccccc1)c1cnn(Cc2ccc(-c3noc(C(F)(F)F)n3)cc2)c1 [compound 485] | 100% | 99% | – | – |
| C=C(C#N)COC(=O)c1cnn(Cc2ccc(-c3noc(C(F)(F)F)n3)cc2)c1 [compound 486] | 100% | 89% | – | – |
| CCCOC(=O)c1cnn(C(C)c2ccc(-c3noc(C(F)(F)F)n3)s2)c1 (centres unmarked) [compound 493] | 100% | 100% | – | – |
| Cc1ccc(C(O)c2ccc(-c3noc(C(F)(F)F)n3)cc2)cc1 (centres unmarked) [compound 501] | 100% | 0% | – | – |
| FC(F)(F)c1nc(-c2ccc(Cn3ccc(S(F)(F)(F)(F)F)n3)cc2)no1 [compound 503] | 43% | 0% | – | – |
| FC(F)(F)c1nc(-c2ccc(Cn3nccc3S(F)(F)(F)(F)F)cc2)no1 [compound 504] | 74% | 0% | – | – |

Reference: US20240090503A1, “FUNGICIDAL OXADIAZOLES AND THEIR MIXTURES” (FMC CORPORATION, priority 2020, published 2024)
